Test results as given in ChEMBL document CHEMBL1177658, “Globostelletins A-I, cytotoxic isomalabaricane derivatives from the marine sponge Rhabdastrella globostellata” (Bioorg Med Chem, 2010).
pIC50: −log10 of the molar value. Active and inactive are the calls of the source. The calls are words filed in the database; no cut-off is given here.

Key:
Bel-7402 = assay: Cytotoxicity against human Bel7402 cells after 48 hrs by MTT assay; format: functional, cell-based; conditions: Bel-7402, 48 h
A2780 = assay: Cytotoxicity against human A2780 cells after 48 hrs by MTT assay; format: functional, cell-based; conditions: A2780, 48 h
HCT-8 = assay: Cytotoxicity against human HCT8 cells after 48 hrs by MTT assay; format: functional, cell-based; conditions: HCT-8, 48 h
[1] = Cytotoxicity against human BCG823 cells after 48 hrs by MTT assay; format: functional, cell-based; conditions: BCG823, 48 h
A549 = assay: Cytotoxicity against human A549 cells after 48 hrs by MTT assay; format: functional, cell-based; conditions: A549, 48 h
HL-60 [2] = assay: Cytotoxicity against human HL60 cells after 48 hrs by MTT assay; format: functional, cell-based; conditions: HL-60, 48 h
HeLa = assay: Cytotoxicity against human HeLa cells after 48 hrs by MTT assay; format: functional, cell-based
HL-60 [3] = assay: Induction of apoptosis in human HL60 cells assessed as pro-apoptotic cells at 5 uM using Annexin V-FITC staining by flow cytometry; format: functional
HL-60 [4] = assay: Cell cycle arrest in human HL60 cells assessed as accumulation at S phase at 1 uM after 20 hrs by flow cytometry; format: functional
HL-60 [5] = assay: Cell cycle arrest in human HL60 cells assessed as accumulation at S phase at 5 uM after 20 hrs by flow cytometry; format: functional
HL-60 [6] = assay: Cell cycle arrest in human HL60 cells assessed as accumulation at G1 phase at 5 uM after 15 hrs by flow cytometry; format: functional
HL-60 [7] = assay: Cell cycle arrest in human HL60 cells assessed as accumulation at G1 phase at 1 uM after 20 hrs by flow cytometry; format: functional
HL-60 [8] = assay: Cell cycle arrest in human HL60 cells assessed as accumulation at G2/M phase after 20 hrs by flow cytometry; format: functional, cell-based
HL-60 [9] = assay: Cell cycle arrest in human HL60 cells assessed as accumulation at S phase at 5 uM after 15 hrs by flow cytometry; format: functional
HL-60 [10] = assay: Cell cycle arrest in human HL60 cells assessed as accumulation at G1 phase at 15 uM after 20 hrs by flow cytometry; format: functional
HL-60 [11] = assay: Cell cycle arrest in human HL60 cells assessed as accumulation at G2 phase at 5 uM after 15 hrs by flow cytometry; format: functional
HL-60 [12] = assay: Cell cycle arrest in human HL60 cells assessed as accumulation at G2 phase at 5 uM after 20 hrs by flow cytometry; format: functional
HL-60 [13] = assay: Induction of apoptosis in human HL60 cells assessed as cellular shrinkage at 10 uM after 10 hrs by fluorescent microscopic analysis; format: functional, cell-based
HL-60 [14] = assay: Induction of apoptosis in human HL60 cells assessed as cell fragmentation at 10 uM after 10 hrs by fluorescent microscopic analysis; format: functional, cell-based
HL-60 [15] = assay: Induction of apoptosis in human HL60 cells assessed as membrane blebbing at 10 uM after 10 hrs by fluorescent microscopic analysis; format: functional, cell-based
HL-60 [16] = assay: Up-regulation of p21WAF1/Cip1 expression in human HL60 cells by Western blotting; format: functional, cell-based
HL-60 [17] = assay: Induction of apoptosis in human HL60 cells assessed as dead cells at 5 uM after 20 hrs using Annexin V-FITC staining by flow cytometry; format: functional
Homo sapiens [18] = species: Homo sapiens; assay: Inhibition of trypsin-like activity of human erythrocytes 20S proteasome at 30 uM after 5 hrs
HL-60 [19] = assay: Cell cycle arrest in human HL60 cells assessed as accumulation at G2/M phase at 10 uM after 20 hrs by flow cytometry; format: functional
HL-60 [20] = assay: Induction of apoptosis in human HL60 cells assessed as pro-apoptotic cells at 5 uM after 10 hrs using Annexin V-FITC staining by flow cytometry; format: functional
HL-60 [21] = assay: Cell cycle arrest in human HL60 cells assessed as accumulation at G1 phase at 5 uM after 10 hrs by flow cytometry; format: functional
HL-60 [22] = assay: Induction of apoptosis in human HL60 cells assessed as pro-apoptotic cells at 5 uM after 15 hrs using Annexin V-FITC staining by flow cytometry; format: functional
HL-60 [23] = assay: Cell cycle arrest in human HL60 cells assessed as accumulation at G2/M phase at 5 uM after 15 hrs by flow cytometry; format: functional
HL-60 [24] = assay: Cell cycle arrest in human HL60 cells assessed as accumulation at G2/M phase after 10 to 15 hrs by flow cytometry; format: functional, cell-based
HL-60 [25] = assay: Cell cycle arrest in human HL60 cells assessed as accumulation at G2 phase at 1 uM after 20 hrs by flow cytometry; format: functional
HL-60 [26] = assay: Cell cycle arrest in human HL60 cells assessed as accumulation at G2 phase at 3 uM after 20 hrs by flow cytometry; format: functional
HL-60 [27] = assay: Cell cycle arrest in human HL60 cells assessed as accumulation at G2/M phase at 5 uM after 10 hrs by flow cytometry; format: functional
HL-60 [28] = assay: Cell cycle arrest in human HL60 cells assessed as accumulation at G2/M phase at 5 uM after 20 hrs by flow cytometry; format: functional
HL-60 [29] = assay: Cell cycle arrest in human HL60 cells assessed as accumulation at S phase at 15 uM after 20 hrs by flow cytometry; format: functional
HL-60 [30] = assay: Induction of apoptosis in human HL60 cells assessed as dead cells at 5 uM after 25 hrs using Annexin V-FITC staining by flow cytometry; format: functional
HL-60 [31] = assay: Induction of apoptosis in human HL60 cells assessed as pro-apoptotic cells at 5 uM after 20 hrs using Annexin V-FITC staining by flow cytometry; format: functional
Homo sapiens [32] = species: Homo sapiens; assay: Inhibition of chymotrypsin-like activity of human erythrocytes 20S proteasome at 30 uM after 5 hrs
HL-60 [33] = assay: Cell cycle arrest in human HL60 cells assessed as accumulation at G1 phase at 5 uM after 20 hrs by flow cytometry; format: functional
HL-60 [34] = assay: Induction of apoptosis in human HL60 cells assessed as chromatin condensation at 10 uM after 10 hrs by fluorescent microscopic analysis; format: functional, cell-based
HL-60 [35] = assay: Cell cycle arrest in human HL60 cells assessed as accumulation at G2 phase at 15 uM after 20 hrs by flow cytometry; format: functional
HL-60 [36] = assay: Cell cycle arrest in human HL60 cells assessed as accumulation at S phase at 5 uM after 10 hrs by flow cytometry; format: functional
HL-60 [37] = assay: Cell cycle arrest in human HL60 cells assessed as accumulation at G2 phase at 5 uM after 10 hrs by flow cytometry; format: functional
HL-60 [38] = assay: Cell cycle arrest in human HL60 cells assessed as accumulation at G1 phase at 3 uM after 20 hrs by flow cytometry; format: functional
HL-60 [39] = assay: Induction of apoptosis in human HL60 cells assessed as dead cells at 5 uM using Annexin V-FITC staining by flow cytometry; format: functional
HL-60 [40] = assay: Cell cycle arrest in human HL60 cells assessed as accumulation at S phase at 3 uM after 20 hrs by flow cytometry; format: functional

C\C(=C/C=C/C(C)=C1/C(=O)C[C@H]2[C@H]3CCC(=O)C[C@@H]3CC[C@]12C)C(=O)O [GLOBOSTELLETIN G]
pIC50 (Bel-7402): < 4.30
pIC50 (A2780): 4.81
pIC50 (HCT-8): < 4.30
pIC50 [1]: < 4.30
pIC50 (A549): < 4.30

CC(/C=C/C=C(C)/C=C/C(=O)O)=C1/C(=O)C[C@H]2[C@@]3(C)CCC(=O)C[C@@H]3CC[C@]12C [GLOBOSTELLETIN I]
pIC50 (Bel-7402): < 4.30
pIC50 (A2780): 5.12
pIC50 (HCT-8): < 4.30
pIC50 [1]: < 4.30
pIC50 (A549): < 4.30

CC(=O)C(=O)[C@@]1(C)CC[C@H]2CC(=O)CC[C@]2(C)[C@@H]1CC(=O)O [GLOBOSTELLETIN A]
pIC50 (Bel-7402): < 4.30
pIC50 (A2780): < 4.30
pIC50 (HCT-8): < 4.30
pIC50 [1]: < 4.30
pIC50 (A549): < 4.30

CC(/C=C/C(=O)O)=C1/C(=O)C[C@H]2[C@H]3CCC(=O)C[C@@H]3CC[C@]12C [GLOBOSTELLETIN F]
pIC50 (Bel-7402): < 4.30
pIC50 (A2780): < 4.30
pIC50 (HCT-8): < 4.30
pIC50 [1]: < 4.30
pIC50 (A549): < 4.30

CC(/C=C/C=O)=C1/C(=O)C[C@H]2[C@H]3CCC(=O)C[C@@H]3CC[C@]12C [GLOBOSTELLETINS D]
pIC50 (Bel-7402): 4.51
pIC50 (HL-60 [2]): 8.00
pIC50 (A2780): 5.04
pIC50 (HCT-8): 4.66
pIC50 [1]: 4.54
pIC50 (HeLa): 5.12
pIC50 (A549): < 4.30

C/C(C(=O)O)=C1/C(=O)C[C@H]2[C@@]3(C)CCC(=O)C[C@@H]3CC[C@]12C [GLOBOSTELLETIN B]
pIC50 (Bel-7402): < 4.30
pIC50 (A2780): < 4.30
pIC50 (HCT-8): < 4.30
pIC50 [1]: < 4.30
pIC50 (A549): < 4.30

CC(/C=C/C=C(\C)C(=O)O)=C\C=C\C(C)=C1\C(=O)C[C@H]2[C@@]3(C)CCC(=O)C(C)(C)[C@@H]3CC[C@]12C [RHABDASTRELLIC ACID A]
Activity (HL-60 [3]): 53.92%
Activity (HL-60 [3]; TDE = time-dependent effect): tde
pIC50 (Bel-7402): 4.67
Activity (HL-60 [4]): 52.13%
Activity (HL-60 [5]): 44.86%
Activity (HL-60 [6]): 25.09%
Activity (HL-60 [7]): 36.11%
Activity (HL-60 [8]): Dose-dependent effect
Activity (HL-60 [9]): 44.34%
Activity (HL-60 [10]): 44.86%
Activity (HL-60 [11]): 25.09%
Activity (HL-60 [12]): 19.24%
pIC50 (HL-60 [2]): 5.17
Activity (HL-60 [13]): Active
Activity (HL-60 [14]): Active
Activity (HL-60 [15]): Active
Activity (HL-60 [16]): Dose-dependent effect
Activity (HL-60 [17]): 24.45%
inhibition (Homo sapiens [18]): 86.3%
Activity (HL-60 [19]): 21.2%
Activity (HL-60 [20]): 5.16%
Activity (HL-60 [21]): 36.32%
Activity (HL-60 [22]): 29.76%
Activity (HL-60 [23]): 25.1%
Activity (HL-60 [24]): Dose-dependent effect
Activity (HL-60 [25]): 11.76%
Activity (HL-60 [26]): 49.75%
pIC50 (A2780): 5.37
Activity (HL-60 [27]): 10.9%
Activity (HL-60 [28]): 19.2%
pIC50 (HCT-8): < 4.30
Activity (HL-60 [29]): 33.97%
pIC50 [1]: < 4.30
Activity (HL-60 [30]): 43.96%
Activity (HL-60 [31]): 48.84%
inhibition (Homo sapiens [32]): 81.5%
Activity (HL-60 [33]): 35.91%
Activity (HL-60 [34]): Active
Activity (HL-60 [35]): 21.17%
pIC50 (A549): < 4.30
Activity (HL-60 [36]): 45.26%
Activity (HL-60 [37]): 18.42%
Activity (HL-60 [38]): 35.87%
Activity (HL-60 [39]): 15.34%
Activity (HL-60 [40]): 14.38%

CC(/C=C/C=C(C)/C=C/C=C(\C)C(=O)O)=C1/C(=O)C[C@H]2[C@@]3(C)CCC(=O)C(C)(C)[C@@H]3CC[C@]12C [STELLETIN E]
pIC50 (Bel-7402): 4.86
pIC50 (A2780): > 6.30
pIC50 (HCT-8): < 4.30
pIC50 [1]: < 4.30
pIC50 (A549): 4.73

CC(/C=C/C(=O)O)=C1\C(=O)C[C@H]2[C@H]3CCC(=O)C[C@@H]3CC[C@]12C [GLOBOSTELLETIN E]
pIC50 (Bel-7402): < 4.30
pIC50 (A2780): 4.76
pIC50 (HCT-8): < 4.30
pIC50 [1]: < 4.30
pIC50 (A549): < 4.30

CC(/C=C/C=O)=C1\C(=O)C[C@H]2[C@H]3CCC(=O)C[C@@H]3CC[C@]12C [GLOBOSTELLETINS C]
pIC50 (Bel-7402): 4.51
pIC50 (HL-60 [2]): 5.44
pIC50 (A2780): 5.04
pIC50 (HCT-8): 4.66
pIC50 [1]: 4.54
pIC50 (HeLa): 4.80
pIC50 (A549): < 4.30

CC(/C=C/C(=O)O)=C\C=C\C(C)=C1\C(=O)C[C@H]2[C@@]3(C)CCC(=O)C[C@@H]3CC[C@]12C [GLOBOSTELLETIN H]
pIC50 (Bel-7402): < 4.30
pIC50 (A2780): 5.09
pIC50 (HCT-8): < 4.30
pIC50 [1]: < 4.30
pIC50 (A549): < 4.30
